We go through 6 compounds from ChEMBL document CHEMBL5724914, “Linking interpersonal differences in gut microbiota composition and drug biotransformation activity” (2024).

For data set [1] the following is noted: human gut metagenome, 24 h, 2 µM.
The conditions of data set [2]: human gut metagenome, 24 h, 2 µM. This is another data set of the same source.
Data set [3] can be described thus: The drug is tested on Z-025 corresponding to rabbit gut metagenome with ENA study accession number: PRJEB37062 and ENA sample accession number: ERS12561824 for biotransformation under anaerobic condition. The drug concentrations were measured over 9 timepoints collected between 0 and 24 hours of incubation by liquid-chromatography-coupled mass spectrometry (LC–MS). The note with it: 2 µM.

Data set [4] can be described thus: The drug is tested on WLS-310 corresponding to human gut metagenome with ENA study accession number: PRJEB37062 and ENA sample accession number: ERS12561785 for biotransformation under anaerobic condition. The drug concentrations were measured over 9 timepoints collected between 0 and 24 hours of incubation by liquid-chromatography-coupled mass spectrometry (LC–MS). The note with it: 2 µM.

For data set [5] the following is noted: human gut metagenome, 24 h, 2 µM. This is another data set of the same source.
Data set [6] in a line: The drug is tested on Z-012 corresponding to metagenome with ENA study accession number: PRJEB37062 and ENA sample accession number: ERS12561812 for biotransformation under anaerobic condition. The drug concentrations were measured over 9 timepoints collected between 0 and 24 hours of incubation by liquid-chromatography-coupled mass spectrometry (LC–MS). The note with it: 2 µM.

A short description of data set [7]: The drug is tested on Z-029 corresponding to rat gut metagenome with ENA study accession number: PRJEB37062 and ENA sample accession number: ERS12561828 for biotransformation under anaerobic condition. The drug concentrations were measured over 9 timepoints collected between 0 and 24 hours of incubation by liquid-chromatography-coupled mass spectrometry (LC–MS). The following applies: 2 µM.

For data set [8] the following is noted: human gut metagenome, 24 h, 2 µM. This is another data set of the same source.
The conditions of data set [9]: human gut metagenome, 24 h, 2 µM. This is another data set of the same source.
Data set [10] in a line: The drug is tested on Z-011 corresponding to mouse gut metagenome with ENA study accession number: PRJEB37062 and ENA sample accession number: ERS12561811 for biotransformation under anaerobic condition. The drug concentrations were measured over 9 timepoints collected between 0 and 24 hours of incubation by liquid-chromatography-coupled mass spectrometry (LC–MS). The following applies: 2 µM.

Data set [11] can be described thus: The drug is tested on Z-022 corresponding to mouse gut metagenome with ENA study accession number: PRJEB37062 and ENA sample accession number: ERS12561821 for biotransformation under anaerobic condition. The drug concentrations were measured over 9 timepoints collected between 0 and 24 hours of incubation by liquid-chromatography-coupled mass spectrometry (LC–MS). The note with it: 2 µM.

For data set [12] the following is noted: human gut metagenome, 24 h, 2 µM. This is another data set of the same source.
Data set [13] can be described thus: The drug is tested on Z-001 corresponding to mouse gut metagenome with ENA study accession number: PRJEB37062 and ENA sample accession number: ERS12561801 for biotransformation under anaerobic condition. The drug concentrations were measured over 9 timepoints collected between 0 and 24 hours of incubation by liquid-chromatography-coupled mass spectrometry (LC–MS). The following applies: 2 µM.

For data set [14] the following is noted: human gut metagenome, 24 h, 2 µM. This is another data set of the same source.
Data set [15] in a line: The drug is tested on Z-018 corresponding to pig gut metagenome with ENA study accession number: PRJEB37062 and ENA sample accession number: ERS12561817 for biotransformation under anaerobic condition. The drug concentrations were measured over 9 timepoints collected between 0 and 24 hours of incubation by liquid-chromatography-coupled mass spectrometry (LC–MS). The following applies: 2 µM.

A short description of data set [16]: The drug is tested on Z-013 corresponding to rabbit gut metagenome with ENA study accession number: PRJEB37062 and ENA sample accession number: ERS12561813 for biotransformation under anaerobic condition. The drug concentrations were measured over 9 timepoints collected between 0 and 24 hours of incubation by liquid-chromatography-coupled mass spectrometry (LC–MS). The note with it: 2 µM.

A short description of data set [17]: The drug is tested on WLS-077 corresponding to human gut metagenome with ENA study accession number: PRJEB37062 and ENA sample accession number: ERS12561750 for biotransformation under anaerobic condition. The drug concentrations were measured over 9 timepoints collected between 0 and 24 hours of incubation by liquid-chromatography-coupled mass spectrometry (LC–MS). The note with it: 2 µM.

For data set [18] the following is noted: human gut metagenome, 24 h, 2 µM. This is another data set of the same source.
The conditions of data set [19]: human gut metagenome, 24 h, 2 µM. This is another data set of the same source.
The conditions of data set [20]: human gut metagenome, 24 h, 2 µM. The source holds these as a separate data set.
Further: call rule not given here.

Consider `Nc1nnc(-c2cccc(Cl)c2Cl)c(N)n1` [LAMOTRIGINE], for which the “Bacterial Biotransformation” value in data set [1], in data set [2], in data set [3], in data set [4], in data set [5] and in [6] was “Compound NOT metabolized” in each case. The “Bacterial Biotransformation” value in [7] was “Compound NOT metabolized”; in [8], “Compound metabolized”; in [9] it was “Compound NOT metabolized”; in [10], “Compound NOT metabolized”; in data set [11] it was “Compound NOT metabolized”; in data set [12] it was “Compound NOT metabolized”. Also, the “Bacterial Biotransformation” value in data set [13], in data set [14], in [15], in data set [16], in data set [17] and in [18] was “Compound NOT metabolized” throughout. Also, the “Bacterial Biotransformation” value in [19] and in data set [20] was “Compound NOT metabolized” in each case.
With `O=C(NC(Cc1cc(=O)[nH]c2ccccc12)C(=O)O)c1ccc(Cl)cc1` (stereo not given) [REBAMIPIDE], the “Bacterial Biotransformation” value in [1], in data set [2], in data set [3], in [4], in [5] and in data set [6] was “Compound NOT metabolized” each time. Besides, the “Bacterial Biotransformation” value in [7], in data set [8], in data set [9], in [10], in [11] and in data set [12] was “Compound NOT metabolized” each time. Also, the “Bacterial Biotransformation” value in data set [13] is “Compound NOT metabolized”; in data set [14], “Compound metabolized”; in [15] it was “Compound NOT metabolized”; in data set [16], “Compound NOT metabolized”; in data set [17] it was “Compound NOT metabolized”; in [18], “Compound NOT metabolized”. For the same compound, the “Bacterial Biotransformation” value in data set [19] and in data set [20] was “Compound NOT metabolized” each time.
As to `c1ccc2[nH]c(-c3cscn3)nc2c1` [THIABENDAZOLE], the “Bacterial Biotransformation” value in [1], in data set [2], in [3], in data set [4], in [5] and in [6] was “Compound NOT metabolized” each time. Further, the “Bacterial Biotransformation” value in [7], in data set [8], in data set [9], in data set [10], in data set [11] and in data set [12] was “Compound NOT metabolized” each time. Moreover, the “Bacterial Biotransformation” value in data set [13], in data set [14], in data set [15], in data set [16], in [17] and in [18] was “Compound NOT metabolized” each time. In addition, the “Bacterial Biotransformation” value in [19] and in data set [20] was “Compound NOT metabolized” each time.
As for `O=C1C(CC[S+]([O-])c2ccccc2)C(=O)N(c2ccccc2)N1c1ccccc1` (stereo not given) [SULFINPYRAZONE], the “Bacterial Biotransformation” value in [1] is on record as “Compound metabolized”; in [2], “Compound metabolized”; in data set [3], “Compound NOT metabolized”; in [4], “Compound metabolized”; in data set [5] it was “Compound metabolized”; in data set [6], “Compound NOT metabolized”. The “Bacterial Biotransformation” value in [7] was “Compound NOT metabolized”; in [8] it was “Compound metabolized”; in [9], “Compound metabolized”; in data set [10], “Compound NOT metabolized”; in [11], “Compound NOT metabolized”; in data set [12] it was “Compound metabolized”. In addition, the “Bacterial Biotransformation” value is on record as “Compound NOT metabolized” in [13]; “Compound metabolized” in [14]; “Compound metabolized” in [15]; “Compound NOT metabolized” in [16]; “Compound metabolized” in [17]; “Compound metabolized” in [18]. The “Bacterial Biotransformation” value in data set [19] and in [20] was “Compound metabolized” throughout.
With `COc1cc(C(=O)NCc2ccc(OCCN(C)C)cc2)cc(OC)c1OC` [TRIMETHOBENZAMIDE], the “Bacterial Biotransformation” value in [1], in data set [2], in [3], in data set [4], in data set [5] and in [6] was “Compound NOT metabolized” each time. For the same compound, the “Bacterial Biotransformation” value in data set [7], in data set [8], in data set [9], in [10], in data set [11] and in data set [12] was “Compound NOT metabolized” in each case. In addition, the “Bacterial Biotransformation” value in data set [13], in data set [14], in [15], in [16], in [17] and in data set [18] was “Compound NOT metabolized” throughout. For the same compound, the “Bacterial Biotransformation” value in [19] and in data set [20] was “Compound NOT metabolized” in each case.
Turning to `COc1ccc(C(CN(C)C)C2(O)CCCCC2)cc1` (stereo not given) [VENLAFAXINE], the “Bacterial Biotransformation” value is recorded as “Compound NOT metabolized” in data set [1]; “Compound NOT metabolized” in data set [2]; “Compound NOT metabolized” in data set [3]; “Compound metabolized” in data set [4]; “Compound NOT metabolized” in data set [5]; “Compound NOT metabolized” in data set [6]. Besides, the “Bacterial Biotransformation” value in [7], in [8], in data set [9], in [10], in [11] and in [12] was “Compound NOT metabolized” in each case. In addition, the “Bacterial Biotransformation” value in data set [13] was “Compound metabolized”; in data set [14], “Compound NOT metabolized”; in data set [15] it was “Compound NOT metabolized”; in data set [16], “Compound NOT metabolized”; in data set [17] it was “Compound NOT metabolized”; in [18], “Compound NOT metabolized”. For the same compound, the “Bacterial Biotransformation” value in data set [19] and in data set [20] was “Compound NOT metabolized” each time.
